From US20090179638A1, “ASSAY FOR IDENTIFYING INHIBITORS OF NEURONAL APOPTOTIC PATHWAYS” (AEGERA THERAPEUTICS INC., priority 2006, published 2009)

What was measured:
JNK = JNK activity in vitro; type: biochemical; settings: data not shown
HSP70, HSP25, HSP90 mRNA = assay: semi-quantitative rtPCR of HSP mRNA in PC12 cells; type: cell-based, rat; settings: 18 hours
Description: FIGS. 4A-4C are photographs of Western blots which illustrate that compound 1 treatment of PC12 cells induces expression of HSP70. A: PC12 cells were infected with 5 MOI of AdNRG (NRG) or AdLacZ (LacZ) as indicated. Cells were left untreated (0) or treated with 40 μM compound 1 at time of infection (30), one hour before lysis (1), or at both times (30+1). Cells were lysed thirty hours after infection, normalized for protein content, and analyzed for levels of phospho-Ser^63 c-Jun and total c-Jun, total JNK, IkBα, and NRAGE by immunoblotting. Lysates from untreated cells are indicated by ‘−’. B: PC12 cells were treated with the indicated concentrations of compound 1 for 18 hours and then lysed, normalized for protein content, and analyzed for levels of HSP70 by immunoblotting. Lysates from untreated cells are indicated by ‘−’. C: RNA isolated from PC12^rtTA cells treated with increasing concentrations of compound 1 for 18 hours was analyzed by rtPCR using primers specific to HSP70, HSP25, HSP90 or actin, as indicated. […] Thirty hours after infection, cells were lysed, normalized for protein content, and analyzed for levels of c-Jun phosphorylation, HSP70, HSP25, HSP40, NRAGE, p75NTR, JNK-1 and IkBα, as indicated.
To address this, SCG neurons were treated with compound 1 for 18 hours then lysed and assessed for HSP70 levels by immunoblot. […]

HSP70 promoter = HSP70 promoter reporter transcriptional assay in MEFs (luciferase); type: cell-based, mouse
Description: FIGS. 5B and 5C are photographs of Western blots showing that compound 1 binds HSP90 and causes HSF1-dependent expression of HSP70 and HSP25. A: Wild-type or HSF1 null MEFs were transfected with pGL3B-HSP70, an HSP70 promoter reporter construct, or parental vector (pGL3B), then treated with 40 μM of compound 1 for 24 hours and analyzed for luciferase content as described in Materials and Methods (*=P<0.005 relative to 0 compound 1; **=P<0.005 relative to wild-type MEFs treated with 40 uM compound 1. B: Wild-type or HSF1 null MEFs were treated with increasing concentrations of compound 1 for 24 hours, cells were lysed, normalized for protein content, and analyzed for levels of HSP70, HSP40, and HSP25 as indicated. C: Compound 6-conjugated Sepharose beads were incubated with purified HSP90 for 2 hours, washed, and levels of bound HSP90 were analyzed by immunoblot. Con=Control beads, Alone=Compound 6-beads alone, Comp=[…]+competing compound 1 (at 80 μM). Experiments in Panel A-C were performed three times with identical results.
Induction of cell stress results in the interaction of HSP90 with misfolded proteins and disrupts its association with HSF1, allowing it to bind and activate HSP70 and HSP25 promoters (Sanchez-Perez and Perona, 1999). […]

NS(=O)(=O)c1nn2cc(-c3ccccc3)nc2s1 [Compound 1]
effect on JNK activity in vitro (JNK): no effect
HSP25 and HSP70 mRNA levels (HSP70, HSP25, HSP90 mRNA): increased levels
HSP90 or actin mRNA levels (HSP70, HSP25, HSP90 mRNA): no effect
transcriptional activity of the HSP70 promoter reporter construct (HSP70 promoter; MEFs lacking HSF1, 40 μM): remained at baseline
transcriptional activity of the HSP70 promoter reporter construct (HSP70 promoter; wild-type MEFs, 40 μM): strongly induced
